Reference: patent US10202658B2, “Methods for determining hypersusceptibility of HIV-1 to non-nucleoside reverse transcriptase inhibitors” (Monogram Biosciences, Inc., priority 2005, dated 2019)

What was measured:
[1] = test system: HIV-1 NL4-3 SDM, K65R in reverse transcriptase; experiment: NNRTI susceptibility of site-directed mutant (SDM) bearing only K65R in NL4-3 background; format: cell-based; conditions: mean+/-SD of 18 replicates, p<0.00001 versus reference
Experimental: (§1) In preferred embodiments, the phenotypic analysis of NNRTI hypersusceptibility is performed using PHENOSENSE™ (ViroLogic Inc., South San Francisco, Calif.). See Petropoulos et al., 2000, Antimicrob. Agents Chemother. 44:920-928; U.S. Pat. Nos. 5,837,464 and 6,242,187. PHENOSENSE™ is a phenotypic assay that achieves the benefits of phenotypic testing and overcomes the drawbacks of previous assays. Because the assay has been automated, PHENOSENSE™ provides high throughput methods under controlled conditions for determining NNRTI resistance, susceptibility, or hypersusceptibility of a large number of individual viral isolates.
The assay can be performed by first co-transfecting host cells with RTV DNA and a plasmid that expresses the envelope proteins of another retrovirus, for example, amphotropic murine leukemia virus (MLV). Following transfection, viral particles can be harvested from the cell culture and used to infect fresh target cells in the presence of varying amounts of anti-viral drug(s). The completion of a single round of viral replication in the fresh target cells can be detected by the means for detecting replication contained in the vector. In a preferred embodiment, the completion of a single round of viral replication results in the production of luciferase. […] The susceptibility of an HIV, or population of HIV, can be determined by measuring the concentration of antiviral drug at which the luciferase activity detected is half-maximal. […]
Resistance tests were carried out with resistance test vectors using two host cell types. […] The resistance test vector viral particles were then used to infect a second host cell (the target host cell) in which the expression of the indicator gene is measured.
The amount of luciferase activity detected in infected cells is used as a direct measure of “infectivity,” i.e., the ability of the virus to complete a single round of replication. Thus, drug resistance or sensitivity can be determined by plotting the amount of luciferase activity produced by patient derived viruses in the presence of varying concentrations of the antiviral drug. […]

[2] = test system: HIV-1, RT mutations: T215Y and 2 TAMs and H208X; experiment: PhenoSense resistance test vector assay, clinical isolates with T215Y and 2 TAMs and H208X; format: cell-based; conditions: share of samples designated hypersusceptible
Experimental: as §1
The assay can be performed by first co-transfecting host cells with RTV DNA and a plasmid that expresses the envelope proteins of another retrovirus, for example, amphotropic murine leukemia virus (MLV). Following transfection, viral particles can be harvested from the cell culture and used to infect fresh target cells in the presence of varying amounts of anti-viral drug(s). The completion of a single round of viral replication in the fresh target cells can be detected by the means for detecting replication contained in the vector. In a preferred embodiment, the completion of a single round of viral replication results in the production of luciferase. By monitoring the amount of, e.g., luciferase activity in the presence of the varying amounts of antiviral drug(s), a resistance curve can be constructed by plotting luciferase activity versus drug concentration. The susceptibility of an HIV, or population of HIV, can be determined by measuring the concentration of antiviral drug at which the luciferase activity detected is half-maximal. This number, the IC50, provides a standard and convenient measure of drug resistance.
Patient-derived segment(s) corresponding to the HIV protease and reverse transcriptase coding regions were amplified by the reverse transcription-polymerase chain reaction method (RT-PCR) using viral RNA isolated from viral particles present in the plasma or serum of HIV-infected individuals as follows. […]

Structure (SMILES) | FC (fold change in IC50) [1] | % IC50 0.4 fold < WT [2] [%]
Cc1ccnc2c1NC(=O)c1cccnc1N2C1CC1 [NVP, nevirapine] | 0.53+/−0.05 | 9.1
O=C1Nc2ccc(Cl)cc2[C@@](C#CC2CC2)(C(F)(F)F)O1 [EFV, efavirenz] | 0.56+/−0.02 | 54.5
CC(C)Nc1cccnc1N1CCN(C(=O)c2cc3cc(NS(C)(=O)=O)ccc3[nH]2)CC1 [DLV, delavirdine] | 0.54+/−0.03 | 90.9
